# Data: patent publication US7968752B2, “Hydrolytically-resistant boron-containing therapeutics and methods of use” (Anacor Pharmaceuticals, Inc., priority 2003, dated 2011)
# Columns and labels:
# S. faecalis ATCC 29212 = assay: MIC determination (NCCLS broth microdilution); format: cell-based; conditions: 24 hours at 34° C., lowest concentration with >=80% inhibition; for MIC: Enterococcus faecalis, ATCC29212
# S. pneumoniae ATCC 6301 = assay: MIC determination (NCCLS broth microdilution); format: cell-based; conditions: 24 hours at 34° C., lowest concentration with >=80% inhibition; for MIC: Streptococcus pneumoniae, ATCC6301
# S. aureus ATCC 29213 = assay: MIC determination (NCCLS broth microdilution); format: cell-based; conditions: 24 hours at 34° C., lowest concentration with >=80% inhibition; for MIC: Staphylococcus aureus, ATCC29213
# [1] = tested on: S. epidermidis ATCC 12228; assay: MIC determination (NCCLS broth microdilution); format: cell-based; conditions: 24 hours at 34° C., lowest concentration with >=80% inhibition; for MIC: Staphylococcus epidermidis, ATCC12228
# S. faecium CT-26 = assay: MIC determination (NCCLS broth microdilution); format: cell-based; conditions: 24 hours at 34° C., lowest concentration with >=80% inhibition; for MIC: Enterococcus faecium, CT26
# [2] = Cell viability (CellTiter 96) in HepG2 2.15 assay; format: cell-based; conditions: human, HepG2 2.2.15 cells (produce HBV ayw1 strain); read-out: Anti-Hepatitis B Activity TC50
# Procedure: (§1) HepG2 2.15 Antiviral Evaluation Assay—HepG2 2.2.15 cells, which produce HBV ayw1 strain, were plated in 96-well collagencoated microtiter plates at a density of 2.5×10^4/well with DMEM medium supplemented with 2% fetal bovine serum. One day following plating of cells, the wells were washed and the medium was replaced with complete medium containing the test compound diluted in the medium in a half-log series.
# (§2) The medium was replaced once with the fresh medium containing the freshly diluted compound three days post the initial addition of the lamivudine, a positive control compound. Cell viability was determined using CellTiter 96® Reagent (Promega, Madison, Wis.) according to the manufacturer's protocol, using a Vmax plate reader (Molecular Devices, Sunnyvale, Calif.). The mixture is metabolized by the mitochondrial enzymes of metabolically active cells to a soluble formazan product, allowing the rapid quantitative analysis of cell numbers. The media was removed and replaced with 100 μl of fresh media and 10 μl of Cell Titer 96. […] Percent cell viability of compound treated wells compared to no compound controls was calculated using an in-house computer program which graphs the percent reduction in viral cytopathic effects and the cell numbers at each drug concentration relative to control values.
# [3] = Cytotoxicity in HCV RNA replicon assay; conditions: human, ET cell line (luc-ubi-neo/ET)
# HBV ayw1 strain = assay: HepG2 2.15 Antiviral Evaluation Assay; format: cell-based; conditions: Hepatitis B virus; HepG2 2.2.15 cells; read-out: Anti-Hepatitis B Activity IC50
# Procedure: as §1, §2
# 17D strain YFV virus = assay: microbe, parasite or virus in culture; format: cell-based, Yellow Fever (YFV); conditions: Yellow fever virus, HeLa, 168 h, read-out: Anti-Yellow Fever Activity IC50
# in vitro = conditions: human
SMILES,MIC (S. faecalis ATCC 29212) [µg/mL],MIC (S. pneumoniae ATCC 6301) [µg/mL],MIC (S. aureus ATCC 29213) [µg/mL],MIC [1] [µg/mL],MIC (S. faecium CT-26) [µg/mL],CC50 [2] [nM],CC50 at 72 hr [3] [nM],IC50 (HBV ayw1 strain) [nM],IC50 (17D strain YFV virus) [nM],CC50 at 7 day (in vitro) [nM],MIC S. faecalis ATCC 29212 (S. faecalis ATCC 29212) [micrograms per ml],MIC S. pneumoniae ATCC 6301 (S. pneumoniae ATCC 6301) [micrograms per ml],MIC S. aureus ATCC 29213 (S. aureus ATCC 29213) [micrograms per ml],MIC S. epidermidis ATCC 12228 [1] [micrograms per ml],MIC S. faecium CT-26 (S. faecium CT-26) [micrograms per ml]
"CO/N=C(\C(=O)N[C@@H]1C(=O)N2C(C(=O)O)=C(CSc3nc(=O)c(=O)[nH]n3C)CS[C@H]12)c1csc(N)n1 [Ceftriaxone, reference compound]",64,0.125,2,1,64,,,,,,,,,,
"Cc1onc(-c2ccccc2Cl)c1C(=O)N[C@@H]1C(=O)N2[C@@H]1SC(C)(C)[C@@H]2C(=O)O [Cloxacillin, reference compound]",16,0.125,0.125,0.25,64,,,,,,,,,,
"Fc1ccc2c(c1)COB2c1cccc(Cl)c1 [Compound 11, 1-(3-Chlorophenyl)-5-fluoro-1,3-dihydrobenzo[c][1,2]oxaborole]",32,8,< 0.125,1,32,3200,1290,2470,650,4140,,,,,
"Clc1cccc(B2OCc3ccccc32)c1 [Compound 12, 1-(3-Chlorophenyl)-1,3-dihydrobenzo[c][1,2]oxaborole]",16,8,0.5,2,16,,12700,,,,,,,,
"Fc1cccc(B2OCc3cc(Cl)ccc32)c1 [Compound 13, 5-Chloro-1-(3-Fluorophenyl)-1,3-dihydrobenzo[c][1,2]oxaborole]",16,4,< 0.125,0.25,8,,370,,1390,6220,,,,,
"N#Cc1cccc(B2OCc3ccccc32)c1 [Compound 14, 3-(Benzo[c][1,2]oxaborol-1(3H)-yl)benzonitrile]",32,2,0.25,2,16,,1140,,440,6530,,,,,
"Fc1ccc2c(c1)B(c1cccc(Cl)c1)OC2 [Compound 15, 1-(3-Chlorophenyl)-6-fluoro-1,3-dihydrobenzo[c][1,2]oxaborole]",16,4,0.5,2,8,,540,,1190,6600,,,,,
"CC1(C)OB(c2cccc(Cl)c2)c2ccccc21 [Compound 16, 1-(3-Chlorophenyl)-1,3-dihydro-3,3-dimethylbenzo[c][1,2]oxaborole]",16,8,0.5,2,16,,,,,,,,,,
"Clc1ccc(B2OCc3ccccc32)cc1 [Compound 17, 1-(4-Chlorophenyl)-1,3-dihydrobenzo[c][1,2]oxaborole]",16,4,2,2,16,,260,,1560,6420,,,,,
"N#Cc1ccc(B2OCc3ccccc32)cc1 [Compound 18, 4-(Benzo[c][1,2]oxaborol-1(3H)-yl)benzonitrile]",32,4,2,2,32,,,,740,6600,,,,,
"N#Cc1ccc(B2OCc3cc(F)ccc32)cc1 [Compound 19, 4(5-Fluorobenzo[c][1,2]oxaborol-1(3H)-yl)benzonitrile]",> 64,16,8,16,> 64,,270,,,17100,,,,,
"N#Cc1cccc(B2OCc3cc(F)ccc32)c1 [Compound 20, 3-(5-Fluorobenzo[c][1,2]oxaborol-1(3H)-yl)benzonitrile]",64,8,1,16,64,,5990,,1620,21000,,,,,
"N#Cc1cccc(B2OCc3ccc(F)cc32)c1 [Compound 21, 3-(6-Fluorobenzo[c][1,2]oxaborol-1(3H)-yl)benzonitrile]",64,8,8,16,64,,690,,2360,15800,,,,,
NCc1ccc(B2OCc3cc(F)ccc32)cc1 [Compound 23],16,8,2,8,16,,,,,,,,,,
NCc1cccc(B2OCc3cc(F)ccc32)c1 [Compound 24],32,16,4,8,32,,,,,,,,,,
"CC[C@H]1OC(=O)[C@H](C)[C@@H](O[C@H]2C[C@@](C)(OC)[C@@H](O)[C@H](C)O2)[C@H](C)[C@@H](O[C@@H]2O[C@H](C)C[C@H](N(C)C)[C@H]2O)[C@](C)(O)C[C@@H](C)C(=O)[C@H](C)[C@@H](O)[C@]1(C)O [Erythromycin, reference compound]",2,,0.5,0.5,,,,,,,,,,,
"C[C@@H](O)[C@H]1C(=O)N2C(C(=O)O)=C(SCCN=CN)C[C@H]12 [Imipenem, reference compound]",1,0.125,0.125,0.125,64,,,,,,,,,,
"CC1(C)S[C@@H]2[C@H](NC(=O)Cc3ccccc3)C(=O)N2[C@H]1C(=O)O [Pen G, reference compound]",,,,,,,,,,,1,0.125,0.5,16,32
"Nc1ccn([C@@H]2CS[C@H](CO)O2)c(=O)n1 [lamivudine, reference compound]",,,,,,> 1000,,9.3,,,,,,,
